Test system: NOMO1
Assay: cell viability relative to DMSO control; higher = less cytotoxic
Conditions: 48 h
How it was run: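 Viability, reported as a per-plate percentage of DMSO wells with cell-free wells as background, came from CellTiter-Glo One luminescence. Reading took place after 48 h at 37°C. Before that, NOMO1 or SEM (500 cells/well) or P12-Ichikawa (1000 cells/well) leukemia cells, adapted for at least four passages in each medium, were seeded in 1536-well plates (5 μl) and pin-dosed with library compounds in DMSO, 47 μM to 0.79 nM over 11 threefold points.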

[1] = HPLM + 10% dialyzed FBS, 0.000781 µM
[2] = HPLM + 10% dialyzed FBS, 0.00234 µM
[3] = HPLM + 10% dialyzed FBS, 0.00702 µM
[4] = HPLM + 10% dialyzed FBS, 0.0211 µM
[5] = HPLM + 10% dialyzed FBS, 0.0632 µM
[6] = HPLM + 10% dialyzed FBS, 0.19 µM
[7] = HPLM + 10% dialyzed FBS, 0.569 µM
[8] = HPLM + 10% dialyzed FBS, 1.71 µM
[9] = HPLM + 10% dialyzed FBS, 5.12 µM
[10] = HPLM + 10% dialyzed FBS, 15.4 µM
[11] = HPLM + 10% dialyzed FBS, 46.1 µM
[12] = RPMI 5 mM glucose + 10% FBS, 0.000781 µM
[13] = RPMI 5 mM glucose + 10% FBS, 0.00234 µM
[14] = RPMI 5 mM glucose + 10% FBS, 0.00702 µM
[15] = RPMI 5 mM glucose + 10% FBS, 0.0211 µM
[16] = RPMI 5 mM glucose + 10% FBS, 0.0632 µM
[17] = RPMI 5 mM glucose + 10% FBS, 0.19 µM
[18] = RPMI 5 mM glucose + 10% FBS, 0.569 µM
[19] = RPMI 5 mM glucose + 10% FBS, 1.71 µM
[20] = RPMI 5 mM glucose + 10% FBS, 5.12 µM
[21] = RPMI 5 mM glucose + 10% FBS, 15.4 µM
[22] = RPMI 5 mM glucose + 10% FBS, 46.1 µM
[23] = RPMI 5 mM glucose + 10% dialyzed FBS, 0.000781 µM
[24] = RPMI 5 mM glucose + 10% dialyzed FBS, 0.00234 µM
[25] = RPMI 5 mM glucose + 10% dialyzed FBS, 0.00702 µM
[26] = RPMI 5 mM glucose + 10% dialyzed FBS, 0.0211 µM
[27] = RPMI 5 mM glucose + 10% dialyzed FBS, 0.0632 µM
[28] = RPMI 5 mM glucose + 10% dialyzed FBS, 0.19 µM
[29] = RPMI 5 mM glucose + 10% dialyzed FBS, 0.569 µM
[30] = RPMI 5 mM glucose + 10% dialyzed FBS, 1.71 µM
[31] = RPMI 5 mM glucose + 10% dialyzed FBS, 5.12 µM
[32] = RPMI 5 mM glucose + 10% dialyzed FBS, 15.4 µM
[33] = RPMI 5 mM glucose + 10% dialyzed FBS, 46.1 µM

Structure (SMILES)	cell viability [1]	cell viability [2]	cell viability [3]	cell viability [4]	cell viability [5]	cell viability [6]	cell viability [7]	cell viability [8]	cell viability [9]	cell viability [10]	cell viability [11]	cell viability [12]	cell viability [13]	cell viability [14]	cell viability [15]	cell viability [16]	cell viability [17]	cell viability [18]	cell viability [19]	cell viability [20]	cell viability [21]	cell viability [22]	cell viability [23]	cell viability [24]	cell viability [25]	cell viability [26]	cell viability [27]	cell viability [28]	cell viability [29]	cell viability [30]	cell viability [31]	cell viability [32]	cell viability [33]
CC(C)(C)NC(=O)[C@@H]1CN(Cc2cccnc2)CCN1C[C@@H](O)C[C@@H](Cc1ccccc1)C(=O)N[C@H]1c2ccccc2C[C@H]1O.O=S(=O)(O)O	103%	122%	111%	108%	117%	105%	106%	127%	122%	130%	90.9%	112%	112%	128%	128%	120%	119%	132%	136%	133%	130%	107%	99.5%	117%	123%	116%	120%	119%	125%	155%	145%	136%	98%
CN(C)CCN(Cc1ccc(Cl)cc1)c1ccccn1.Cl	84.4%	90.2%	89.4%	95.3%	91%	78.5%	98.2%	63.8%	93.9%	91.1%	90.3%	85.2%	90%	92.7%	92.6%	84.1%	96.8%	99.2%	85.9%	92%	80%	90.5%	83.5%	95.1%	91.7%	96.1%	94.1%	89.3%	103%	50.5%	87.3%	89.8%	79.6%
COC1(C[S+]([O-])c2ccccc2)CCN(CCc2c[nH]c3ccc(F)cc23)CC1 (centres undefined)												107%	113%	106%	106%	117%	117%	116%	112%	113%	103%	96.2%	111%	99.8%	115%	102%	112%	111%	110%	99.8%	98.3%	103%	90.3%
C#Cc1cccc(Nc2ncnc3cc(OC)c(OCCCCCCC(=O)NO)cc23)c1	125%	119%	136%	129%	111%	98.2%	41.5%	18.4%	7.85%	8.02%	3.32%																						
